Assays:
dry vaginal mucosa = assay: topical treatment of dry vaginal mucosa; type: in vivo, human; settings: 5% in molecular complex with 0.5% L-arginine, oil-in-water cream pH 3.1, twice daily, one week, person
Procedure: Lactobionic acid 50% aqueous solution 10 g was uniformly mixed with an oil-in-water base 80 g, and the cream thus obtained had pH 2.5. L-Arginine 5% solution 10 g prepared from 8 parts water and 2 parts propylene glycol by volume was added to form molecular complex of amphoteric system as shown by the increase of pH to 3.1. The composition thus formulated contained 5% lactobionic acid in molecular complex with 0.5% L-arginine.
A subject, having dry vaginal mucosa topically applied the above bionic acid cream twice daily to the affected areas of the mucosa.

[1] = tested on: skin changes associated with aging; assay: skin thickness of forearm by micrometer calipers after topical application; type: in vivo, human; settings: twice daily, four weeks, person
Procedure: In one of the studies related to skin changes associated with aging, skin thickness was measured by micrometer calipers as follows:
The skin was grasped with a 2×6 cm metal hinge; the internal faces of which were coated with emery cloth to prevent slippage, and manually squeezed to threshold subject discomfort. Combined thickness of two whole-skin layers including thickness of the two hinge leaves was measured with micrometer calipers. Thickness of the two hinge leaves was subtracted to determine the actual thickness of two whole-skin layers. Triplicate measurements on treated sites were done and an average number was used for calculation of the skin thickness.
A subject, topically applied twice daily to their left forearm for four weeks lactobionic acid 22% in a solution prepared from water 7 parts and propylene glycol 3 parts. After four weeks their right forearm was still loose and relatively thin, and the skin was relatively rough and dry. […] While there was no change in skin thickness of their right forearm, their left forearm had increased 12% in skin thickness as measured by the micrometer calipers described in the Example.

[2] = antioxidant property, banana peel test method; settings: for colour of banana peels: 1×2 cm peels in 5 ml 0.1 M solution, room temperature
Text: An antioxidant may be defined as a substance capable of preventing or inhibiting oxidation. […] The antioxidant property is readily determined by using any one of the following test methods: prevention or retardation of air oxidation of (a) anthralin, (b) hydroquinone, or (c) banana peel. A freshly prepared anthralin solution or cream is bright yellow, and an air oxidized one is brownish or black. A hydroquinone solution or cream is colorless or white color, and an air oxidized one is brownish or black. A freshly peeled banana peel is light yellow in color and an oxidized one ranges in color from tan, dark tan, brown to brownish black.
For example, in control experiments, fresh banana peels cut into sizes of 1×2 cm in 50 mm plastic petri dishes containing 5 ml water at neutral or acidic pH changed in color from white-yellowish to tan within 6 hours at room temperature, and changed to dark tan color during the next period of 24 to 72 hours.
Antioxidant property of an oligosaccharide aldonic acid may also be determined by utilizing banana peel test method as follows.
A fresh ripe banana peel cut into sizes of 2×2 cm has the outer layer light yellow in color. These freshly cut banana peels after exposed to air or immersed in an aqueous solution without an antioxidant in 50 mm plastic petri dishes rapidly changed in color from yellowish to tan within 3 hours, dark tan within 24 hours and brown black after 72 hours. A test substance including a positive control such as vitamin C, citric acid or N-acetylcysteine was prepared as 0.1 M concentration, and each test dish contained 5 ml test solution. Freshly cut banana peels 2×2 cm in sizes were immersed in 5 ml test solutions including known antioxidants and vehicle controls with pH at 7.0 and 4.0. […] The same results were also found for the known antioxidant substances; vitamin C, citric acid and N-acetylcysteine.

O=C(O)[C@H](O)[C@@H](O)[C@H](O[C@@H]1O[C@H](CO)[C@H](O)[C@H](O)[C@H]1O)[C@H](O)CO [lactobionic acid]
dryness of vaginal mucosa (dry vaginal mucosa): dryness of vaginal mucosa disappeared completely
increase in skin thickness ([1]; 22% in water/propylene glycol 7:3 solution, left forearm): 12%
skin condition of treated forearm ([1]; 22% solution): more firm and plump, and the skin was smooth, soft and not dry
colour of banana peels ([2]; 24 hours): remained white-yellowish
colour of banana peels ([2]; after 72 hours): changed in color to tan
colour change of banana peels ([2]; 2×2 cm peels in 5 ml 0.1 M test solution, water control tan within 4 hours): did not change color

From patent US20120040920A1, “OLIGOSACCHARIDE ALDONIC ACIDS AND THEIR TOPICAL USE” (priority 1999, published 2012)
